Reference: ChEMBL document CHEMBL1145176, “Somatostatin receptor 1 selective analogues: 2. N(alpha)-Methylated scan” (J Med Chem, 2005)
Positions of bridges follow the written chain, without caps; N, C: chain ends. Non-standard residues stand in square brackets, D forms with d. Residues, ends and D or L forms follow the SMILES beside them. NMePhe(4-CH2NHiPr) = CN[C@@H](Cc1ccc(CNC(C)C)cc1)C(=O)O; Phe(4-CH2NHiPr) = CC(C)NCc1ccc(C[C@H](N)C(=O)O)cc1; d2Nal = N[C@H](Cc1ccc2ccccc2c1)C(=O)O; NMeS = CN[C@@H](CO)C(=O)O

What was measured:
[1] = biological target: Somatostatin receptor type 1 (Homo sapiens, UniProt P30872); assay: Inhibition of [Leu8,D-Trp22,125I-Tyr25]SRIF-28 binding to human somatostatin receptor type 1
Sequence of Somatostatin receptor type 1 (P30872 whole entry): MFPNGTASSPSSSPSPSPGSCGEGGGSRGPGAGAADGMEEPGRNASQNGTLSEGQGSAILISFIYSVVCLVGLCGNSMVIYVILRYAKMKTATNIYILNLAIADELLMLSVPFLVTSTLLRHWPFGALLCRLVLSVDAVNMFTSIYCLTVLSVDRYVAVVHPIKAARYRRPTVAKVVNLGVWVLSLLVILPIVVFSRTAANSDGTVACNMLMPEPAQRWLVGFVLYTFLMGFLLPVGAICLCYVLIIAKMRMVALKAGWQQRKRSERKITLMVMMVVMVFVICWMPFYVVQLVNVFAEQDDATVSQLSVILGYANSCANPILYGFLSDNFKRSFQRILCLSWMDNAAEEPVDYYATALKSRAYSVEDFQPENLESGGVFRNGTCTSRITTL

[2] = biological target: Somatostatin receptor type 3 (Homo sapiens, UniProt P32745); assay: Inhibition of [Leu8,D-Trp22,125I-Tyr25]SRIF-28 binding to human somatostatin receptor type 3
Sequence of Somatostatin receptor type 3 (P32745 whole entry): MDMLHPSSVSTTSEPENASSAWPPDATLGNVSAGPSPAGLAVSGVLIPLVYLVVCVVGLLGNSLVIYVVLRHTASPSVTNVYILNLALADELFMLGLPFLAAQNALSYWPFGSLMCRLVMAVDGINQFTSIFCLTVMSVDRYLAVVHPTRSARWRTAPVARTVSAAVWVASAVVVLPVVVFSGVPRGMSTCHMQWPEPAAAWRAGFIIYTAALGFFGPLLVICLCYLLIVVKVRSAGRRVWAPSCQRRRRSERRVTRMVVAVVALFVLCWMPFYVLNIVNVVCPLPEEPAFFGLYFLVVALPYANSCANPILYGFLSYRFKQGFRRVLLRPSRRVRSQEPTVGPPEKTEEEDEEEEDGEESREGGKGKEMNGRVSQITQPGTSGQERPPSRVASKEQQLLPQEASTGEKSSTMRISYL

[3] = biological target: Somatostatin receptor type 4 (Homo sapiens, UniProt P31391); assay: Inhibition of [Leu8,D-Trp22,125I-Tyr25]SRIF-28 binding to human somatostatin receptor type 4
Sequence of Somatostatin receptor type 4 (P31391 whole entry): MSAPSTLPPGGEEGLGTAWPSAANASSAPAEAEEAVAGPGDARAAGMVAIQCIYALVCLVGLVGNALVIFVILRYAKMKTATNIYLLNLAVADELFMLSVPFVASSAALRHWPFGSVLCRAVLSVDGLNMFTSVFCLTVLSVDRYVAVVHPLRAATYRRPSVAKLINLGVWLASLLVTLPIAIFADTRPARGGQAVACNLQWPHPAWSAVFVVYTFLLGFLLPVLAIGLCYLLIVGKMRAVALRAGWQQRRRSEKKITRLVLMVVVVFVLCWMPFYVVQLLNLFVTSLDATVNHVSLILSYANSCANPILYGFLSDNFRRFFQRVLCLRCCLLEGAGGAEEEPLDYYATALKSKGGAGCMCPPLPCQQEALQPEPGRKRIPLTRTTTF

[4] = biological target: Somatostatin receptor type 2 (Homo sapiens, UniProt P30874); assay: Inhibition of [Leu8,D-Trp22,125I-Tyr25]SRIF-28 binding to human somatostatin receptor type 2
Sequence of Somatostatin receptor type 2 (P30874 whole entry): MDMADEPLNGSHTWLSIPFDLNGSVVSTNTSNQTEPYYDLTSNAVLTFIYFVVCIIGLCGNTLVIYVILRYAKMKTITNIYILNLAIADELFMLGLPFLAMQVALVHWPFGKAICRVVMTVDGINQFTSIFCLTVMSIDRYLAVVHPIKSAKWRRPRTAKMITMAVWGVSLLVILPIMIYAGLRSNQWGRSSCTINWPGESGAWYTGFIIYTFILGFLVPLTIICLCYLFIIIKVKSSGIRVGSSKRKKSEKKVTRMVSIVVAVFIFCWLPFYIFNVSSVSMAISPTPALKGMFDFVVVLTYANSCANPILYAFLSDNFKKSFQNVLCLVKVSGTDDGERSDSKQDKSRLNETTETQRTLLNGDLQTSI

[5] = biological target: Somatostatin receptor type 5 (Homo sapiens, UniProt P35346); assay: Inhibition of [Leu8,D-Trp22,125I-Tyr25]SRIF-28 binding to human somatostatin receptor type 5
Sequence of Somatostatin receptor type 5 (P35346 whole entry): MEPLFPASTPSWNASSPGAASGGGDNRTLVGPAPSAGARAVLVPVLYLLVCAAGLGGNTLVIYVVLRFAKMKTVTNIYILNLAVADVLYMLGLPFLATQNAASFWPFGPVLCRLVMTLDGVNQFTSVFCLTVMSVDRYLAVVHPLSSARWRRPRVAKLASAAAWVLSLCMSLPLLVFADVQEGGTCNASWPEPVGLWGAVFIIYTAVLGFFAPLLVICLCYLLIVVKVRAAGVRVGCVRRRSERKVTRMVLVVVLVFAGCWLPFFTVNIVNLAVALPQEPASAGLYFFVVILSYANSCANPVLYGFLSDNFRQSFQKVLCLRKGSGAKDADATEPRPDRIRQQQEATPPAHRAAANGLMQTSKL

CC(C)NCc1ccc(C[C@@H]2NC(=O)[C@@H](N(C)C(=O)c3ccc4ccccc4c3)NC(=O)[C@H](Cc3ccccc3)NC(=O)[C@H](Cc3ccccc3)NC(=O)[C@H](CCCCN)NC(=O)[C@@H](N)CSSC[C@@H](C(=O)O)NC(=O)[C@H](CO)NC(=O)[C@H]([C@@H](C)O)NC(=O)[C@H](Cc3ccc(O)cc3)NC(=O)[C@H]([C@@H](C)O)NC2=O)cc1
IC50 [1]: > 1 µM | IC50 [2]: 0.9 µM | IC50 [3]: > 1 µM

C[C@@H](O)[C@@H]1NC(=O)[C@H](Cc2ccc(O)cc2)NC(=O)[C@H]([C@@H](C)O)NC(=O)[C@H](CCCCN)NC(=O)[C@@H](Cc2c[nH]c3ccccc23)NC(=O)[C@H](Cc2ccccc2)NC(=O)[C@H](Cc2ccccc2)NC(=O)[C@H](CCCCN)NC(=O)[C@@H](N)CSSC[C@@H](C(=O)O)NC(=O)[C@H](CO)NC1=O
IC50 [1]: 0.01 µM | IC50 [4]: 0.016 µM | IC50 [2]: 0.008 µM | IC50 [3]: 0.0005 µM | IC50 [5]: 0.0048 µM

CC(C)NCc1ccc(C[C@@H]2NC(=O)[C@@H](Cc3ccc4ccccc4c3)NC(=O)[C@H](Cc3ccccc3)NC(=O)[C@H](Cc3ccccc3)NC(=O)[C@H](CCCCN)NC(=O)[C@@H](N)CSSC[C@@H](C(=O)N[C@@H](CCCCN)C(=O)O)N(C)C(=O)[C@H](CO)NC(=O)[C@H]([C@@H](C)O)NC(=O)[C@H](Cc3ccccc3)NC(=O)[C@H]([C@@H](C)O)NC2=O)cc1
IC50 [1]: 0.255 µM | IC50 [4]: > 1 µM | IC50 [2]: > 1 µM | IC50 [3]: > 1 µM | IC50 [5]: > 1 µM

CC(C)NCc1ccc(C[C@@H]2NC(=O)[C@@H](Cc3c[nH]c4ccccc34)NC(=O)[C@H](Cc3ccccc3)NC(=O)[C@H](Cc3ccccc3)NC(=O)[C@H](CCCCN)NC(=O)[C@@H](N)CSSC[C@@H](C(=O)N[C@@H](CCCCN)C(=O)O)N(C)C(=O)[C@H](CO)NC(=O)[C@H]([C@@H](C)O)NC(=O)[C@H](Cc3ccccc3)NC(=O)[C@H]([C@@H](C)O)NC2=O)cc1
IC50 [1]: 0.035 µM | IC50 [4]: > 1 µM | IC50 [2]: > 1 µM | IC50 [3]: > 1 µM | IC50 [5]: > 1 µM

CC(C)NCc1ccc(C[C@@H]2NC(=O)[C@@H](Cc3ccc4ccccc4c3)NC(=O)[C@H](Cc3ccccc3)NC(=O)[C@H](Cc3ccccc3)NC(=O)[C@H](CCCCN)N(C)C(=O)[C@@H](N)CSSC[C@@H](C(=O)O)NC(=O)[C@H](CO)NC(=O)[C@H]([C@@H](C)O)NC(=O)[C@H](Cc3ccccc3)NC(=O)[C@H]([C@@H](C)O)NC2=O)cc1
IC50 [1]: 0.535 µM | IC50 [4]: > 1 µM | IC50 [2]: > 1 µM | IC50 [3]: > 1 µM | IC50 [5]: > 1 µM

CN[C@H]1CSSC[C@@H](C(=O)O)NC(=O)[C@H](CO)NC(=O)[C@H]([C@@H](C)O)NC(=O)[C@H](Cc2ccccc2)NC(=O)[C@H]([C@@H](C)O)NC(=O)[C@H](Cc2ccc(CNC(C)C)cc2)NC(=O)[C@@H](Cc2ccc3ccccc3c2)NC(=O)[C@H](Cc2ccccc2)NC(=O)[C@H](Cc2ccccc2)NC(=O)[C@H](CCCCN)NC1=O
IC50 [1]: 0.113 µM | IC50 [4]: > 1 µM | IC50 [2]: > 1 µM | IC50 [3]: > 1 µM | IC50 [5]: > 1 µM

CC(C)NCc1ccc(C[C@@H]2NC(=O)[C@@H](Cc3c[nH]c4ccccc34)NC(=O)[C@H](Cc3ccccc3)NC(=O)[C@H](Cc3ccccc3)NC(=O)[C@H](CCCCN)NC(=O)[C@@H](N)CSSC[C@@H](C(=O)N[C@@H](CCCCN)C(=O)N[C@@H](CCCCN)C(=O)N[C@@H](CCCCN)C(=O)O)N(C)C(=O)[C@H](CO)NC(=O)[C@H]([C@@H](C)O)NC(=O)[C@H](Cc3ccccc3)NC(=O)[C@H]([C@@H](C)O)NC2=O)cc1
IC50 [1]: 0.03 µM | IC50 [4]: > 1 µM | IC50 [2]: > 1 µM | IC50 [3]: > 1 µM | IC50 [5]: 0.803 µM

CC(C)NCc1ccc(C[C@@H]2NC(=O)[C@@H](Cc3ccc4ccccc4c3)NC(=O)[C@H](Cc3ccccc3)NC(=O)[C@H](Cc3ccccc3)NC(=O)[C@H](CCCCN)NC(=O)[C@@H](N)CSSC[C@@H](C(=O)N[C@@H](CCCCN)C(=O)N[C@@H](CCCCN)C(=O)N[C@@H](CCCCN)C(=O)O)N(C)C(=O)[C@H](CO)NC(=O)[C@H]([C@@H](C)O)NC(=O)[C@H](Cc3ccccc3)NC(=O)[C@H]([C@@H](C)O)NC2=O)cc1
IC50 [1]: 0.144 µM | IC50 [4]: > 1 µM | IC50 [2]: 0.62 µM | IC50 [3]: > 1 µM | IC50 [5]: > 1 µM

CC(C)NCc1ccc(C[C@@H]2NC(=O)[C@@H](Cc3c[nH]c4ccccc34)NC(=O)[C@H](Cc3ccccc3)NC(=O)[C@H](Cc3ccccc3)NC(=O)[C@H](CCCCN)NC(=O)[C@@H](N)CSSC[C@@H](C(=O)N[C@@H](CCCCN)C(=O)N[C@@H](CCCCN)C(=O)O)NC(=O)[C@H](CO)N(C)C(=O)[C@H]([C@@H](C)O)NC(=O)[C@H](Cc3ccccc3)NC(=O)[C@H]([C@@H](C)O)NC2=O)cc1
IC50 [1]: 0.053 µM | IC50 [4]: > 1 µM | IC50 [2]: > 1 µM | IC50 [3]: > 1 µM | IC50 [5]: 0.682 µM

CC(C)NCc1ccc(C[C@@H]2NC(=O)[C@@H](Cc3c[nH]c4ccccc34)NC(=O)[C@H](Cc3ccccc3)NC(=O)[C@H](Cc3ccccc3)NC(=O)[C@H](CCCCN)NC(=O)[C@@H](N)CSSC[C@@H](C(=O)O)N(C)C(=O)[C@H](CO)NC(=O)[C@H]([C@@H](C)O)NC(=O)[C@H](Cc3ccccc3)NC(=O)[C@H]([C@@H](C)O)NC2=O)cc1
IC50 [1]: 0.151 µM | IC50 [4]: > 1 µM | IC50 [2]: > 1 µM | IC50 [3]: > 1 µM | IC50 [5]: > 1 µM

CC(C)NCc1ccc(C[C@@H]2NC(=O)[C@@H](Cc3ccc4ccccc4c3)NC(=O)[C@H](Cc3ccccc3)NC(=O)[C@H](Cc3ccccc3)N(C)C(=O)[C@H](CCCCN)NC(=O)[C@@H](N)CSSC[C@@H](C(=O)O)NC(=O)[C@H](CO)NC(=O)[C@H]([C@@H](C)O)NC(=O)[C@H](Cc3ccccc3)NC(=O)[C@H]([C@@H](C)O)NC2=O)cc1
IC50 [1]: > 1 µM | IC50 [4]: > 1 µM | IC50 [2]: > 1 µM | IC50 [3]: > 1 µM | IC50 [5]: > 1 µM

C[C@H](N)C(=O)NCC(=O)N[C@H]1CSSC[C@@H](C(=O)O)NC(=O)[C@H](CO)NC(=O)[C@H]([C@@H](C)O)NC(=O)[C@H](Cc2ccccc2)NC(=O)[C@H]([C@@H](C)O)NC(=O)[C@H](CCCCN)NC(=O)[C@@H](Cc2c[nH]c3ccccc23)NC(=O)[C@H](Cc2ccccc2)NC(=O)[C@H](Cc2ccccc2)NC(=O)[C@H](CCCCN)NC1=O (H-AGCKFF[dW]KTFTSC-OH; disulfide 3-13)
IC50 [1]: 0.00098 µM

CC(C)NCc1ccc(C[C@H]2C(=O)N[C@@H]([C@@H](C)O)C(=O)N[C@@H](Cc3ccccc3)C(=O)N[C@@H]([C@@H](C)O)C(=O)N[C@@H](CO)C(=O)N[C@H](C(=O)O)CSSC[C@H](N)C(=O)N[C@@H](CCCCN)C(=O)N[C@@H](Cc3ccccc3)C(=O)N[C@@H](Cc3ccccc3)C(=O)N[C@H](Cc3ccc4ccccc4c3)C(=O)N2C)cc1 (H-CKFF[d2Nal][NMePhe(4-CH2NHiPr)]TFTSC-OH; disulfide 1-11)
IC50 [1]: 0.069 µM | IC50 [5]: > 1 µM

CC(C)NCc1ccc(C[C@H]2C(=O)N[C@@H]([C@@H](C)O)C(=O)N[C@@H](Cc3ccc(O)cc3)C(=O)N[C@@H]([C@@H](C)O)C(=O)N[C@@H](CO)C(=O)N[C@H](C(=O)O)CSSC[C@H](N)C(=O)N[C@@H](CCCCN)C(=O)N[C@@H](Cc3ccccc3)C(=O)N[C@@H](Cc3ccccc3)C(=O)N[C@H](Cc3ccc4ccccc4c3)C(=O)N2C)cc1 (H-CKFF[d2Nal][NMePhe(4-CH2NHiPr)]TYTSC-OH; disulfide 1-11)
IC50 [1]: 0.025 µM | IC50 [4]: > 1 µM | IC50 [5]: > 1 µM

CC(C)NCc1ccc(C[C@@H]2NC(=O)[C@@H](Cc3ccc4ccccc4c3)NC(=O)[C@H](Cc3ccccc3)NC(=O)[C@H](Cc3ccccc3)NC(=O)[C@H](CCCCN)NC(=O)[C@@H](N)CSSC[C@@H](C(=O)O)NC(=O)[C@H](CO)NC(=O)[C@H]([C@@H](C)O)NC(=O)[C@H](Cc3ccccc3)NC(=O)[C@H]([C@@H](C)O)NC2=O)cc1 (H-CKFF[d2Nal][Phe(4-CH2NHiPr)]TFTSC-OH; disulfide 1-11)
IC50 [1]: 0.248 µM | IC50 [5]: > 1 µM

CC(C)NCc1ccc(C[C@H]2C(=O)N[C@@H]([C@@H](C)O)C(=O)N[C@@H](Cc3ccc(O)cc3)C(=O)N[C@@H]([C@@H](C)O)C(=O)N[C@@H](CO)C(=O)N[C@H](C(=O)O)CSSC[C@H](N)C(=O)N[C@@H](CCCCN)C(=O)N[C@@H](Cc3ccccc3)C(=O)N[C@@H](Cc3ccccc3)C(=O)N[C@H](Cc3c[nH]c4ccccc34)C(=O)N2C)cc1 (H-CKFF[dW][NMePhe(4-CH2NHiPr)]TYTSC-OH; disulfide 1-11)
IC50 [4]: > 1 µM | IC50 [5]: > 1 µM

CC(C)NCc1ccc(C[C@@H]2NC(=O)[C@@H](Cc3c[nH]c4ccccc34)NC(=O)[C@H](Cc3ccccc3)NC(=O)[C@H](Cc3ccccc3)NC(=O)[C@H](CCCCN)NC(=O)[C@@H](N)CSSC[C@@H](C(=O)O)NC(=O)[C@H](CO)NC(=O)[C@H]([C@@H](C)O)NC(=O)[C@H](Cc3ccccc3)NC(=O)[C@H]([C@@H](C)O)NC2=O)cc1 (H-CKFF[dW][Phe(4-CH2NHiPr)]TFTSC-OH; disulfide 1-11)
IC50 [1]: 0.033 µM

CC(C)NCc1ccc(C[C@@H]2NC(=O)[C@@H](Cc3c[nH]c4ccccc34)NC(=O)[C@H](Cc3ccccc3)NC(=O)[C@H](Cc3ccccc3)NC(=O)[C@H](CCCCN)NC(=O)[C@@H](N)CSSC[C@@H](C(=O)O)NC(=O)[C@H](CO)N(C)C(=O)[C@H]([C@@H](C)O)NC(=O)[C@H](Cc3ccccc3)NC(=O)[C@H]([C@@H](C)O)NC2=O)cc1 (H-CKFF[dW][Phe(4-CH2NHiPr)]TFT[NMeS]C-OH; disulfide 1-11)
IC50 [1]: 0.023 µM | IC50 [4]: > 1 µM | IC50 [2]: > 1 µM

CC(C)NCc1ccc(C[C@H]2C(=O)N[C@@H]([C@@H](C)O)C(=O)N[C@@H](Cc3ccccc3)C(=O)N[C@@H]([C@@H](C)O)C(=O)N[C@@H](CO)C(=O)N[C@H](C(=O)O)CSSC[C@H](NC(=O)[C@@H](N)Cc3ccc(O)cc3)C(=O)N[C@@H](CCCCN)C(=O)N[C@@H](Cc3ccccc3)C(=O)N[C@@H](Cc3ccccc3)C(=O)N[C@H](Cc3c[nH]c4ccccc34)C(=O)N2C)cc1 (H-YCKFF[dW][NMePhe(4-CH2NHiPr)]TFTSC-OH; disulfide 2-12)
IC50 [1]: 0.016 µM | IC50 [4]: > 1 µM | IC50 [3]: 0.245 µM
